Assay results taken from patent US20020111532A1, “Tris(hydroxymethyl)phosphino compounds as tissue crosslinking agents” (priority 2000, published 2002).

Test: Shrinkage Temperature Assay (differential scanning calorimetric analysis)
Type: physicochemical
Settings: bovine pericardium crosslinked overnight at room temperature; THPP 10 mg/mL in PBS or 0.25% glutaraldehyde
Method: Tissue Crosslinking: Bovine pericardium tissue was cut into ˜1 cm^2 samples and rinsed in ˜1 L ultrafiltered H2O for about 30 min with stirring. The samples were then rinsed in PBS for an additional 30 min at room temperature with shaking.
Samples were left in solution overnight at room temperature. Samples were then rinsed 5×30 min in ˜200 mL PBS each rinse, and then either tested immediately or stored in 0.01 M HEPES with 40% isopropyl alcohol until testing.
Shrinkage Temperature Assay: The shrinkage temperature of some crosslinked samples was determined using standard differential scanning calorimetric analysis. Briefly, 2-10 mg of tissue was heated at 10° C. increments under nitrogen. Typically, an endotherm is seen in the range of 60° C.-90° C., and this endotherm is attributed to a shrinkage transition.

## O=CCCCC=O [Glutaraldehyde, glutaraldehyde]
  Shrink Onset Temperature: 86.04 °C
